From patent US9738610B2, “Indazole derivatives and uses thereof” (Whitehead Institute for Biomedical Research, priority 2012, dated 2017)
Where two headings read alike, the source gives them in different places.

Key:
[1] = test system: C. albicans CaCi-2; assay: CaCi-2 growth inhibition in the presence of 8 μg/ml fluconazole (Alamar Blue); assay type: cell-based, Candida albicans
Protocol: Fluconazole was obtained from Sequoia Research Products, Ltd. and prepared in a 2 mg/ml stock solution in phosphate buffered saline (PBS). […] PBS (Catalog No. 21-040-CV) without calcium and magnesium was obtained from Cellgro. Penicillin/Streptomycin (Pen/Strep) was obtained from Gibco and prepared 100× in PBS.
RPMI medium (1×) was prepared by dissolving 10.4 g powdered medium in 800 ml water. A buffer of 34.52 g MOPS was added. While stirring, pH was adjusted to 7.0 with 10 N NaOH. Next, 10 ml uridine solution and 50 ml glucose solution were added. The final volume was adjusted to 1000 ml, and filter sterilized.
The following yeast strains were used in this study: C. albicans CaCi-2. Fungal inoculum was prepared as follows: 500 μl of strain was inoculated from cryopreserved stock into a 250-ml shaker flask containing 30 ml growth medium and shaken overnight at 30° C. The optical density (OD 600) of 1 ml fungal culture in a cuvette was read using a standard optical density reader (Eppendorf BioPhotometer Plus), with growth medium as a background blank. The desired volume of fungal inoculums was diluted to desired volume of fungal inoculums according to the following formula: (1/OD measured)×(Desired Final Volume of Inoculum)×0.3=Volume of fungal culture (μl) to add to desired volume of growth medium. When added to media in wells, this yields a calculated starting OD of the fungal inoculum of 0.00015.
Fluconazole stock solution was added to the fungal inoculum to achieve 8 μg/ml. Pen/Strep was added to the media to a 1% concentration (v/v). A Thermo Combi nL was used to dispense 20 μl/well of assay media into all wells. Geldanamycin was dispensed in positive control wells using Thermo Combi nL for a final concentration of 3 μM. Then, 100 nl of test compound was pinned from compound plates into assay plates using a CyBi-Well pin tool. A further 20 μl/well of culture was dispensed into the assay media in all wells. The plates were incubated in a humidified (90% humidity) Liconic incubator at 37° C. without agitation for 48 hours. Alamar Blue was diluted 1:40 in Ca/Mg-free PBS. To all plates, […] of the diluted Alamar Blue was added to the plates to a final dilution factor of 1:200. The plates were incubated for an additional 2 hours. Then, Relative Fluorescence Intensity (RFU) of each well was read on standard plate reader as a measure of relative fungal growth.

[2] = test system: C. albicans CaCi-8; assay: microbe, parasite or virus in culture; assay type: cell-based, Candida albicans
Protocol: This subset was re-subjected to the primary assay and was also tested concurrently in two secondary assays. Secondary assay 1 measured chemosensitization of the more resistant CaCi-8 strain. Secondary assay 2 eliminated anything with inherently antifungal activity. […] A final assay (secondary assay 3) was incorporated to discard any compound displaying toxicity to mammalian fibroblasts. […] This screening campaign is also illustrated in FIG. 3B.
Those that inhibited growth in the resistant strain were also tested for toxicity against Candida in the absence of fluconazole and for toxicity against mammalian cells using a fluorescence reporter assay. The positive control for screening in the Candida and mammalian cell assays was the Hsp90 inhibitor geldanamycin (acting in concert with fluconazole; FIG. 4). Compounds that passed these four hurdles were binned through use of a Saccharomyces assay to determine whether the mechanism of action might be through the Hsp90 pathway, the calcineurin pathway, or an uncategorized mechanism.

[3] = test system: C. albicans CaCi-2; assay: Secondary single-agent (no-fluconazole) activity assay; assay type: cell-based, Candida albicans; conditions: in the absence of fluconazole; read-out: Target Potency (μM) Mean ± S.E.M CaCi-2^b IC50
Protocol: Clear, flat-bottom, black, 384-well plates were obtained from Corning. […] Pen/Strep was obtained from Gibco and prepared 100× in PBS. Fluconazole was obtained from Sigma and prepared in 2 mg/ml stock solution in PBS. Alamar Blue was obtained from Biosource International (Catalog No. DAL1100). Phosphate buffered solution (PBS) without calcium and magnesium was obtained from Cellgro.
Fungal inoculum was prepared as follows: 500 μl of yeast was inoculated from cryopreserved stock into a 250-ml shaker flask containing 30 ml growth medium and shaken overnight (16 hours) at 30° C. The culture was spun down, and the broth was poured off and washed with RPMI medium. The culture was spun down again, and the broth was poured off and resuspended in RPMI medium. The OD 600 of 1 ml of fungal culture in a cuvette was read using a standard optical density reader with growth medium as a background blank. The desired volume of fungal inoculum was diluted to starting OD of the fungal inoculum of 0.00015 A600.
Pen/Strep was added to the media to a final 1% concentration. A Combi NL (Thermo) was used to dispense 20 μl/well of assay media into all wells. Geldanamycin (1.5 mM) and fluconazole (0.2 mg/ml) were mixed for the positive control. Then, 80 nl of positive control solution was dispensed into the positive control wells using Thermo Combi nL for a final concentration of 3 μM geldanamycin and 8 μg/ml fluconazole. Then, 100 nl of test compound were pinned from the compound plates into assay plates using a CyBi-Well pin tool. A further 20 μl/well of RPMI synthetic defined medium culture was dispensed into 384-well, black plates. Fungal suspension (20 μl/well) was dispensed into all wells. The plates were incubated in a humidified (90% humidity) Liconic incubator at 37° C. without agitation for 48 hours. Alamar Blue Reagent was diluted 1:40 in Ca/Mg-free PBS. To all plates, 6.4 μl/well of the diluted Alamar Blue was added to the plates to a final dilution factor of 1:200. The plates were incubated for 2 hours at room temperature. Next, RFU of wells was read on a standard plate reader as a measure of relative fungal growth.

[4] = Plasma stability; conditions: % remaining in human plasma after a 5-hour incubation
[5] = Plasma protein binding; conditions: % bound in human plasma
[6] = test system: NIH-3T3 mammalian fibroblasts; assay: Counterscreen mammalian cell toxicity assay (fibroblast toxicity); assay type: cell-based, murine; conditions: for IC50: footnote: in the absence of fluconazole, read-out: Anti-target Potency (μM) Mean ± S.E.M Fibroblasts^b IC50
[7] = 37° C., 48 hours, with 8 μg/mL (26 μM) fluconazole, average of at least three experiments
[8] = in the presence of fluconazole, read-out: Target Potency (μM) Mean ± S.E.M CaCi-2^a IC50
[9] = in the presence of fluconazole, read-out: Target Potency (μM) Mean ± S.E.M CaCi-8^a IC50
[10] = 37° C., 48 hours, with 8 μg/mL (26 μM) fluconazole, average of at least three experiments, read-out: CaCi-2 IC50
[11] = 37° C., 48 hours, with 8 μg/mL (26 μM) fluconazole, average of at least three experiments, read-out: CaCi-8 IC50

Compound	IC50 [3] [µM]	IC50 [2, 9] [µM]	Plasma Stability [4] [%]	Plasma Protein Binding [5] [%]	IC50 [1, 10] [µM]	IC50 [2, 11] [µM]	also measured
COC(=O)Cn1nc(-c2ccccc2)c2cccc(C(F)(F)F)c21 [Compound 7-CF3]							CaCi-2 IC50 (μM) [1, 7]: inactive; CaCi-8 IC50 (μM) [2, 7]: inactive
c1ccc(-c2n[nH]c3ccccc23)cc1 [Compound 300385]	> 26	> 26	> 99	98			IC50 [1, 8]: 3 µM
COC(=O)Cn1nc(-c2ccccc2)c2ccccc21 [Compound 3243873]	> 26	2.53 ± 1.13	< 1.0	96			IC50 [1, 8]: 1.86 ± 0.99 µM
COC(=O)Cn1nc(-c2ccccc2)c2ccc(F)cc21 [Compound 49835815]	> 26	8.34	1.1	97			IC50 [1, 8]: 5.1 µM
COC(=O)Cn1nc(-c2ccccc2)c2ccc(Cl)cc21 [Compound 49835818]	> 26	8.57	90	18			IC50 [1, 8]: 3.79 µM; ** CaCi-2 to anti-target fold selectivity ([6]; fibroblast IC50 over CaCi-2 IC50 with fluconazole): 7.9; IC50 [6]: 29.9 µM
COC(=O)Cn1nc(-c2cccc(C)c2)c2ccccc21 [Compound 49835823]	> 26	1.34	4.7	98			IC50 [1, 8]: 0.65 µM
COC(=O)Cn1ncc2ccccc21 [Compound 49835852]			< 1.0	< 1.0			IC50 [6]: 0.74 µM
COC(=O)Cn1nc(-c2ccc(C(F)(F)F)cc2)c2ccccc21 [Compound 49835854]	> 26	> 26	17	97			IC50 [6]: 0.68 µM
COC(=O)Cn1nc(-c2ccccc2C)c2ccccc21 [Compound 49835865]	> 26	7.25	< 1.0	< 1.0			IC50 [1, 8]: 5.5 µM
COC(=O)Cn1nc(-c2ccc(F)cc2)c2ccccc21 [Compound 49835876]	> 26	10.2	< 1.0	93			IC50 [1, 8]: 6.26 µM
COC(=O)Cn1nc(-c2ccccc2)c2cc(F)ccc21 [Compound 49835889]	> 26	6.98	1.0	> 96			IC50 [1, 8]: 4.63 µM
COC(=O)Cn1nc(-c2ccc(C)cc2)c2ccccc21 [Cpd 30]					4.8 ± 2.5	19.5 ± 14.2	
COC(=O)Cn1nc(-c2ccc(OC)cc2)c2ccccc21 [Cpd 31]					4.2 ± 1.7	14.1 ± 6.4	
COC(=O)Cn1nc(-c2ccc(F)cc2)c2ccccc21 [Cpd 32]					8.3 ± 2.8	12.3 ± 3.9	
COC(=O)Cn1nc(-c2ccc(C(F)(F)F)cc2)c2ccccc21 [Cpd 33]							CaCi-2 IC50 (μM) [1, 7]: inactive; CaCi-8 IC50 (μM) [2, 7]: inactive
COC(=O)Cn1nc(-c2ccc(C#N)cc2)c2ccccc21 [Cpd 34]						20.5 ± 0.3	CaCi-2 IC50 (μM) [1, 7]: inactive
COC(=O)Cn1nc(-c2cccc(C)c2)c2ccccc21 [Cpd 35]					1.1 ± 0.6	1.9 ± 0.9	
COC(=O)Cn1nc(-c2cccc(OC)c2)c2ccccc21 [Cpd 36]					0.7 ± 0.3	1.5 ± 0.6	
COC(=O)Cn1nc(-c2cccc(N(C)C)c2)c2ccccc21 [Cpd 37]					0.8 ± 0.1	2 ± 0.2	
COC(=O)Cn1nc(-c2cccc(F)c2)c2ccccc21 [Cpd 38]					1.7 ± 0.4	4.2 ± 4.1	
COC(=O)Cn1nc(-c2ccccc2C)c2ccccc21 [Cpd 39]					5.3 ± 0.5	7.8 ± 2.6	
COC(=O)Cn1nc(-c2ccccc2OC)c2ccccc21 [Cpd 40]					9.3 ± 3.6	11.4 ± 1.7	
COC(=O)Cn1nc(-c2cc(OC)cc(OC)c2)c2ccccc21 [Cpd 41]							CaCi-2 IC50 (μM) [1, 7]: inactive; CaCi-8 IC50 (μM) [2, 7]: inactive
COC(=O)Cn1nc(-c2cccnc2)c2ccccc21 [drawing 228]							CaCi-2 IC50 (μM) [1]: inactive; CaCi-8 IC50 (μM) [2, 7]: inactive
COC(=O)Cn1nc(-c2cncnc2)c2ccccc21 [drawing 229]						21.1 ± 3.3	CaCi-2 IC50 (μM) [1, 7]: inactive
CCc1nn(CC(=O)OC)c2ccccc12 [—Et]							CaCi-2 IC50 (μM) [1, 7]: inactive; CaCi-8 IC50 (μM) [2, 7]: inactive
COC(=O)Cn1ncc2ccccc21 [—H]							CaCi-2 IC50 (μM) [1, 7]: inactive; CaCi-8 IC50 (μM) [2, 7]: inactive
